Data from ChEMBL document CHEMBL1201862, “PubChem BioAssay data set” (2004).
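Interpolation was linear, between the two tested concentrations surrounding the appropriate level; five concentrations were tested over 48 hours in 96-well plates. GI50 marks 50% less growth.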 Active and inactive are the calls of the source. Rule as the data show it: active = GI50 up to about 1.1 µM and inactive = higher.

How the values were obtained:
Test in all cases: NCI tumour cell line growth inhibition, 48 h
SK-MEL-2 = system: SK-MEL-2
Malme-3M = system: Malme-3M
SNB-75 = system: SNB-75
HT-29 = system: HT-29
SNB-19 = system: SNB-19
SK-MEL-28 = system: SK-MEL-28
UACC-62 = system: UACC-62
UO-31 = system: UO-31
ACHN = system: ACHN
HCC 2998 = system: HCC 2998
NCI-H522 = system: NCI-H522
HOP-62 = system: HOP-62
OVCAR-3 = system: OVCAR-3
OVCAR-5 = system: OVCAR-5
RXF 393 = system: RXF 393
EKVX = system: EKVX

## CC1(c2cccc(C3CC4(CCC3=O)OCCCCO4)c2)OCCO1 (configuration not stated)
SK-MEL-2
  GI50: > 100 µM (inactive)
Malme-3M
  GI50: > 100 µM (inactive)
SNB-75
  GI50: 92.7 µM (inactive)
HT-29
  GI50: > 100 µM (inactive)
SNB-19
  GI50: > 100 µM (inactive)
SK-MEL-28
  GI50: > 100 µM (inactive)
UACC-62
  GI50: > 100 µM (inactive)
UO-31
  GI50: > 100 µM (inactive)
ACHN
  GI50: > 100 µM (inactive)
HCC 2998
  GI50: > 100 µM (inactive)
NCI-H522
  GI50: > 100 µM (inactive)
HOP-62
  GI50: > 100 µM (inactive)
OVCAR-3
  GI50: > 100 µM (inactive)
OVCAR-5
  GI50: > 100 µM (inactive)

## CC1(C)CCCC2(C)C3C(O)CC2(C)C(O)C31 (configuration not stated)
SK-MEL-2
  GI50: > 100 µM (inactive)
RXF 393
  GI50: > 100 µM (inactive)
Malme-3M
  GI50: > 100 µM (inactive)
SNB-75
  GI50: > 100 µM (inactive)
HT-29
  GI50: > 100 µM (inactive)
SNB-19
  GI50: > 100 µM (inactive)
SK-MEL-28
  GI50: > 100 µM (inactive)
UACC-62
  GI50: > 100 µM (inactive)
UO-31
  GI50: > 100 µM (inactive)
ACHN
  GI50: > 100 µM (inactive)
EKVX
  GI50: > 100 µM (inactive)
HCC 2998
  GI50: > 100 µM (inactive)
NCI-H522
  GI50: > 100 µM (inactive)
HOP-62
  GI50: > 100 µM (inactive)
OVCAR-3
  GI50: > 100 µM (inactive)
OVCAR-5
  GI50: > 100 µM (inactive)

## COc1ccc(OC)c2cc(C3(C)SCCCS3)ccc12
SK-MEL-2
  GI50: > 100 µM (inactive)
RXF 393
  GI50: 20.5 µM (inactive)
Malme-3M
  GI50: > 100 µM (inactive)
SNB-75
  GI50: 56.6 µM (inactive)
HT-29
  GI50: 40.4 µM (inactive)
SNB-19
  GI50: > 100 µM (inactive)
SK-MEL-28
  GI50: > 100 µM (inactive)
UACC-62
  GI50: > 100 µM (inactive)
UO-31
  GI50: > 100 µM (inactive)
ACHN
  GI50: > 100 µM (inactive)
EKVX
  GI50: > 100 µM (inactive)
HCC 2998
  GI50: > 100 µM (inactive)
HOP-62
  GI50: > 100 µM (inactive)
OVCAR-3
  GI50: > 100 µM (inactive)
OVCAR-5
  GI50: > 100 µM (inactive)

## CCc1c(OC(C)=O)c2c(NC3OCC(OC(C)=O)C(OC(C)=O)C3OC(C)=O)nc(SC)nc2oc1=O (configuration not stated)
SK-MEL-2
  GI50: > 100 µM (inactive)
RXF 393
  GI50: > 100 µM (inactive)
Malme-3M
  GI50: > 100 µM (inactive)
SNB-75
  GI50: > 100 µM (inactive)
HT-29
  GI50: > 100 µM (inactive)
SNB-19
  GI50: > 100 µM (inactive)
UACC-62
  GI50: > 100 µM (inactive)
UO-31
  GI50: > 100 µM (inactive)
ACHN
  GI50: > 100 µM (inactive)
EKVX
  GI50: > 100 µM (inactive)
HCC 2998
  GI50: > 100 µM (inactive)
HOP-62
  GI50: > 100 µM (inactive)
OVCAR-3
  GI50: > 100 µM (inactive)
OVCAR-5
  GI50: > 100 µM (inactive)

## O=C1c2ccccc2C2(O)N(c3ccccc3)C(=S)N(c3ccccc3)C12O (configuration not stated)
SK-MEL-2
  GI50: > 100 µM (inactive)
RXF 393
  GI50: > 100 µM (inactive)
Malme-3M
  GI50: > 100 µM (inactive)
SNB-75
  GI50: > 100 µM (inactive)
HT-29
  GI50: > 100 µM (inactive)
SNB-19
  GI50: > 100 µM (inactive)
SK-MEL-28
  GI50: > 100 µM (inactive)
UACC-62
  GI50: > 100 µM (inactive)
UO-31
  GI50: 92.7 µM (inactive)
ACHN
  GI50: > 100 µM (inactive)
EKVX
  GI50: > 100 µM (inactive)
HCC 2998
  GI50: > 100 µM (inactive)
NCI-H522
  GI50: > 100 µM (inactive)
HOP-62
  GI50: > 100 µM (inactive)
OVCAR-3
  GI50: > 100 µM (inactive)
OVCAR-5
  GI50: > 100 µM (inactive)

## COc1ncn(C2C=C(CO)C(O)C2O)c(=O)n1 (configuration not stated)
SK-MEL-2
  GI50: > 100 µM (inactive)
RXF 393
  GI50: > 100 µM (inactive)
Malme-3M
  GI50: > 100 µM (inactive)
SNB-75
  GI50: > 100 µM (inactive)
SNB-19
  GI50: < 0.01 µM (active)
SK-MEL-28
  GI50: > 100 µM (inactive)
UACC-62
  GI50: > 100 µM (inactive)
UO-31
  GI50: > 100 µM (inactive)
ACHN
  GI50: > 100 µM (inactive)
EKVX
  GI50: > 100 µM (inactive)
HCC 2998
  GI50: > 100 µM (inactive)
NCI-H522
  GI50: > 100 µM (inactive)
HOP-62
  GI50: > 100 µM (inactive)
OVCAR-3
  GI50: > 100 µM (inactive)

## COc1ccccc1NC(=O)C1=C(C)NC(C)=C(C(=O)Nc2ccccc2OC)C1C1=CC=COC1
Malme-3M
  GI50: 5.68 µM (inactive)
SNB-75
  GI50: 23 µM (inactive)
HT-29
  GI50: 4.46 µM (inactive)
SNB-19
  GI50: 19.1 µM (inactive)
SK-MEL-28
  GI50: 18.8 µM (inactive)
UACC-62
  GI50: 3.3 µM (inactive)
UO-31
  GI50: 25.9 µM (inactive)
ACHN
  GI50: 9.23 µM (inactive)
EKVX
  GI50: 10.8 µM (inactive)
HCC 2998
  GI50: 12.3 µM (inactive)
HOP-62
  GI50: 27.5 µM (inactive)
OVCAR-3
  GI50: 3.11 µM (inactive)
OVCAR-5
  GI50: 36.4 µM (inactive)
